Where two headings read alike, the source gives them in different places.
Assays:
[1] = target: T1, Drosophila Rdl (Drosophila melanogaster, UniProt P25123); test: [3H] muscimol radioligand binding assay, membranes of High Five cells infected with vBP8-Rdl
T1 construct: excised the full-length cDNA encoding Rdl; made in house; host or cells: High Five (Trichoplusia ni) cells, baculovirus vBP8-Rdl
T1 sequence (P25123 45-606): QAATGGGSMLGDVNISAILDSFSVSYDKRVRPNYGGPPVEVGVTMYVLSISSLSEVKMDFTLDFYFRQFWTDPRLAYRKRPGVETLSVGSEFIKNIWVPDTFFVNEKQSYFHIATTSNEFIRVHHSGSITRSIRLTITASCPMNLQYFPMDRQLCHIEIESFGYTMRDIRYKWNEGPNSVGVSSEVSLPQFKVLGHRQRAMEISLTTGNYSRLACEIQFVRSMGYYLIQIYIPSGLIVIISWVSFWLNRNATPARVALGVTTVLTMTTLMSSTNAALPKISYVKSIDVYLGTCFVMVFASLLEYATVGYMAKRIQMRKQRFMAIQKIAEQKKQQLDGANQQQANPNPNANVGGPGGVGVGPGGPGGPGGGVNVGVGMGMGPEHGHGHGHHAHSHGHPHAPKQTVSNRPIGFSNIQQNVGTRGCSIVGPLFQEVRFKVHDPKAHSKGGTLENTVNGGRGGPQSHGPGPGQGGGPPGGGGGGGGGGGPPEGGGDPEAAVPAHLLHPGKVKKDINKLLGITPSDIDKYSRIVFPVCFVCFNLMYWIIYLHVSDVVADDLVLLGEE
Procedure: (§1) High Five™ cells (derived from the cabbage loper, Trichoplusia ni, Invitrogen Corp.) were infected with vBP8-Rdl, vBP8-LCCH3, or vBP8-Grd, either singly or in various combinations. Cells were harvested at 3 days post-infection in tubes of approximately 6×10^7 cells per tube, the cells were pelleted by centrifugation, the supernatants discarded, and the pellets immediately stored at -80° C. This amount of tissue is sufficient for one 96-well microtiter plate. Membranes were prepared by first thawing and then resuspending the cell pellet in 25 mL of 10 mM phosphate buffer pH 7.4. The cells were gently homogenized with five strokes in a glass/Teflon homogenizer and the membranes pelleted by centrifugation at 120,000 g for 30 minutes. The membrane pellet was resuspended in 25 mL of 10 mM phosphate buffer pH 7.4, re-pelleted as above, and the pellet finally resuspended in 3 mL of buffer. The protein concentration was determined by the Bradford method (Bradford (1976) Anal. Biochem. 79:248) and then adjusted to 625 μg of protein per mL of 10 mM PBS, pH 7.4.
(§2) The reactions were incubated for 90 minutes at 4° C., and then terminated by filtration through Whatman GF/B glass fiber filters. Filters were washed with two 5 mL aliquots of cold buffer, and the radioactivity remaining on the filters was determined by liquid scintillation. Multiple assays were performed to test numerous compounds.

[2] = target: T2, Drosophila Grd and LCCH3 (Drosophila melanogaster, UniProt Q08832+Q24352); test: [3H] muscimol radioligand binding assay, membranes of High Five cells co-infected with vBP8-Grd/vBP8-LCCH3
T2 construct: made in house; host or cells: High Five (Trichoplusia ni) cells, co-infected with vBP8-Grd and vBP8-LCCH3
T2 sequence (Q24352 59-686): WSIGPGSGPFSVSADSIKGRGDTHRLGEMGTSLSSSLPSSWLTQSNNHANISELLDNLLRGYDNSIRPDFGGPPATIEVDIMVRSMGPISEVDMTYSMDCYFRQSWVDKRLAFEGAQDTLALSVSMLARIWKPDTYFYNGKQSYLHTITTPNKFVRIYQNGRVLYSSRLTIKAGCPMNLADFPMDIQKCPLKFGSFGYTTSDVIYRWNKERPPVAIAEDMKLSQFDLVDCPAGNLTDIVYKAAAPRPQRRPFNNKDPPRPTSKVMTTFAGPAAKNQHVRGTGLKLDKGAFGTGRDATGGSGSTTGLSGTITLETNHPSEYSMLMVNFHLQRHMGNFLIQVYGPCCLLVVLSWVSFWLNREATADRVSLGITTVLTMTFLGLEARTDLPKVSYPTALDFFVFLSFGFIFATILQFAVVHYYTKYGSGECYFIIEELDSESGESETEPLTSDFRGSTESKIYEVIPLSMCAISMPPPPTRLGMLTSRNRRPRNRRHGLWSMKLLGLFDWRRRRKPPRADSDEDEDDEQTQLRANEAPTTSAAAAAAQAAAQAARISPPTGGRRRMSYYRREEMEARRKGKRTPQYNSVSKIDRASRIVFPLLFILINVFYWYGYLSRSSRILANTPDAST
T2 sequence (Q08832 21-496): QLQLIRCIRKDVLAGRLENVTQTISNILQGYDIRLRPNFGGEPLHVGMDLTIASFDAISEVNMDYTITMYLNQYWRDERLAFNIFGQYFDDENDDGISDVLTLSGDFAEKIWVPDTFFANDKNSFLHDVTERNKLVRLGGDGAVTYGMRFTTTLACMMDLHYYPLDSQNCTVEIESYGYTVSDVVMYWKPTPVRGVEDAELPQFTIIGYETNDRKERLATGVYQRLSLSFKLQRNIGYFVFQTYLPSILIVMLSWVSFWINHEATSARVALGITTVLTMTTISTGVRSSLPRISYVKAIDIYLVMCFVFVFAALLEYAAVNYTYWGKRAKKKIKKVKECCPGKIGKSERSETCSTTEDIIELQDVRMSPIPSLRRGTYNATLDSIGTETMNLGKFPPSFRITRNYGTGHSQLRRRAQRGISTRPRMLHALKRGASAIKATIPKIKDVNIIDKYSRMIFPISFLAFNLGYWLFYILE
Procedure: as §1
The radioligand binding assays were composed of 200 μL membrane preparation (containing 125 μg protein), 100 μL of [^3 H] muscimol (to give a final concentration of 5 nM), 20 μL of unlabeled test compound, buffer or unlabeled muscimol, and 680 μL of 10 mM PBS, pH 7.4. […] The reactions were incubated for 90 minutes at 4° C., and then terminated by filtration through Whatman GF/B glass fiber filters. Filters were washed with two 5 mL aliquots of cold buffer, and the radioactivity remaining on the filters was determined by liquid scintillation. Multiple assays were performed to test numerous compounds.

[3] = target: Rat brain; test: [3H] muscimol binding, rat brain (previous assays of the inventors)
Text: Data from fly heads and rat brains were obtained as described in Table 2.

[4] = target: T3, Drosophila Grd (Drosophila melanogaster, UniProt Q24352); test: [3H] muscimol radioligand binding assay, membranes of High Five cells infected with vBP8-Grd; settings: High Five cell membranes
T3 construct: made in house; host or cells: High Five (Trichoplusia ni) cells, baculovirus vBP8-Grd
T3 sequence (Q24352 59-686): T2 sequence (Q24352 59-686)
Procedure: as §1, with “The membrane pellet was resuspended in 25 mL of 10 mM phosphate buffer pH 7.4, re-pelleted as above, and the pellet finally resuspended in 3 mL of buffer.” left out
(§3) The radioligand binding assays were composed of 200 μL membrane preparation (containing 125 μg protein), 100 μL of [^3 H] muscimol (to give a final concentration of 5 nM), 20 μL of unlabeled test compound, buffer or unlabeled muscimol, and 680 μL of 10 mM PBS, pH 7.4. […] Filters were washed with two 5 mL aliquots of cold buffer, and the radioactivity remaining on the filters was determined by liquid scintillation. […]

[5] = target: T4, Drosophila LCCH3 (Drosophila melanogaster, UniProt Q08832); test: [3H] muscimol radioligand binding assay, membranes of High Five cells infected with vBP8-LCCH3; settings: High Five cell membranes
T4 construct: made in house; host or cells: High Five (Trichoplusia ni) cells, baculovirus vBP8-LCCH3
T4 sequence (Q08832 21-496): T2 sequence (Q08832 21-496)
Procedure: as §1, with “The membrane pellet was resuspended in 25 mL of 10 mM phosphate buffer pH 7.4, re-pelleted as above, and the pellet finally resuspended in 3 mL of buffer.” left out
as §3

[6] = target: T5, Drosophila Rdl, Grd and LCCH3 (Drosophila melanogaster, UniProt P25123+Q08832+Q24352); test: [3H] muscimol radioligand binding assay, membranes of High Five cells infected with vBP8-Grd/vBP8-LCCH3/vBP8-Rdl
T5 construct: excised the full-length cDNA encoding Rdl; made in house; host or cells: High Five (Trichoplusia ni) cells, co-infected with vBP8-Grd, vBP8-LCCH3 and vBP8-Rdl
T5 sequence (P25123 45-606): T1 sequence (P25123 45-606)
T5 sequence (Q24352 59-686): T2 sequence (Q24352 59-686)
T5 sequence (Q08832 21-496): T2 sequence (Q08832 21-496)
Procedure: as §1, §2

[7] = target: T6, Human α1 and rat β2 (UniProt P14867+P63138); test: [3H] muscimol radioligand binding assay, positive control receptor expressed in insect cells; settings: [3H] muscimol 5 nM, insect cell membranes
T6 construct: made in house; host or cells: insect cells, baculoviruses vEV-humα1 and vEV-ratβ2

[8] = target: T2, Drosophila Grd and LCCH3; test: [3H] muscimol radioligand binding assay, membranes of High Five cells co-infected with vBP8-Grd/vBP8-LCCH3; remark: listed apart in the source
[9] = target: Housefly heads; settings: from Lunt et al. (1985), cited from earlier work; for IC50: half-maximal displacement of [3H] muscimol, read-out: IC50, Fly Heads
[10] = tested on: insect cells infected with either vBP8-Grd, vBP8-LCCH3, or co-infected with vBP8-Grd and vBP8-LCCH3; test: Whole cell voltage clamp recordings of infected insect cells; type: cell-based, Drosophila; settings: GABA applications of up to 1 mM, 30 to 36 hours post-infection, any of the three infected cell types
Procedure: Insect cells infected with either vBP8-Grd, vBP8-LCCH3, or co-infected with vBP8-Grd and vBP8-LCCH3 were analyzed for the expression and assembly of functional GABA-gated chloride channels. Whole cell voltage clamp recordings were made at between 30 and 36 hours post-infection. […] However, no specific [^3 H]EBOB binding was detected in cells infected with any combination of virus.

[11] = half-maximal displacement of [3H] muscimol, read-out: IC50, Rdl
[12] = half-maximal displacement of [3H] muscimol, read-out: IC50, Grd/LCCH3
[13] = half-maximal displacement of [3H] muscimol, previous assays by the inventors
[14] = [3H] muscimol 5 nM, High Five cell membranes, non-specific = 10 μM GABA
[15] = [3H] muscimol saturation binding, High Five cell membranes
[16] = [3H] muscimol 5 nM, non-specific = 10 μM GABA
[17] = [3H] muscimol saturation binding

T6 sequence (P14867 28-456): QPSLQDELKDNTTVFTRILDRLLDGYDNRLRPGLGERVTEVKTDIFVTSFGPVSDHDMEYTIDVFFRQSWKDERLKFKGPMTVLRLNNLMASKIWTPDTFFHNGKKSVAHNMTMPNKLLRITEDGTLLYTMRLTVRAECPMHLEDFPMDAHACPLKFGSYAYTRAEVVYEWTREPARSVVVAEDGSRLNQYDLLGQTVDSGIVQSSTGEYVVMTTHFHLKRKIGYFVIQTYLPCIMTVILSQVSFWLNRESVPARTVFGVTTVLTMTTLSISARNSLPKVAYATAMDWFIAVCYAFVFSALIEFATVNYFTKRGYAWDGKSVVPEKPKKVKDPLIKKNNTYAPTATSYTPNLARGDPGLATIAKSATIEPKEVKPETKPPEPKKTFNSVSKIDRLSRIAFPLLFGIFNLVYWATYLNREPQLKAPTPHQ
T6 sequence (P63138 25-474 limits assumed): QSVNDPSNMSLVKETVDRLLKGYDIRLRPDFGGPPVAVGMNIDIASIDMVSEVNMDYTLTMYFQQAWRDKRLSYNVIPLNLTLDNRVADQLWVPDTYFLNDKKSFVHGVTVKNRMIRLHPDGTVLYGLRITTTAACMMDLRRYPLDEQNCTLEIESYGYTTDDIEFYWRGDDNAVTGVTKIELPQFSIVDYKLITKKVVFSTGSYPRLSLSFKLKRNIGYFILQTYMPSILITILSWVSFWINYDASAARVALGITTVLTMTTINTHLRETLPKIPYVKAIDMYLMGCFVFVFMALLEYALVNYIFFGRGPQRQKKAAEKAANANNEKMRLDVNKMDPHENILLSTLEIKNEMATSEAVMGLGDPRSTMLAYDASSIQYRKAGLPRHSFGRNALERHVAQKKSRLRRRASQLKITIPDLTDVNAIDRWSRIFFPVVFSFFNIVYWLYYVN

## NCCCCC(=O)O [5-amino-valeric acid]
[1]; [11]
  IC50: 2.1 µM
[2]; [12]
  IC50: 0.749 µM
[3]; [13]
  IC50: > 1000 µM

## CN1CCc2cc3c(cc2[C@H]1[C@@H]1OC(=O)c2c1ccc1c2OCO1)OCO3 [Bicuculline]
[1]
  IC50: > 1000 µM
[2]
  IC50: > 1000 µM
[3]; [13]
  IC50: 19 µM

## NCc1cc(O)no1 [[^3 H] muscimol]
[1]; High Five cell membranes
  Bmax: 0.11 pmol [3H] muscimol bound per m
[1]; [14]
  % Specific Binding: 55%
[1]; [15]
  Kd: 0.012 µM
[4]; [16]
  % Specific Binding: 10%
[4]; [17]
  Kd: > 10 µM
[5]; [16]
  % Specific Binding: 10%
[5]; [17]
  Kd: > 10 µM
[2]; [14]
  % Specific Binding: 85%
[2]; cells 3 days after co-infection with vBP8-Grd and vBP8-LCCH3
  specific binding of [3H]muscimol: High levels of specific binding
[6]; High Five cell membranes
  Bmax: 0.64 pmol [3H] muscimol bound per m
[6]; [14]
  % Specific Binding: 60%
[6]; [15]
  Kd: 0.038 µM
[7]
  % Specific Binding: 80%
[3]; rat brain, previous assays by the inventors
  Kd: 0.028 µM
[8]; Grd/LCCH3 co-infected versus Rdl-infected cells
  maximum number of binding sites (Bmax) relative to vBP8-Rdl-infected cells: 15 fold
[8]; High Five cell membranes
  Bmax: 1.85 pmol [3H] muscimol bound per m
[8]; [15]
  Kd: 0.012 µM
[9]; housefly heads
  Kd: 0.04 µM

## NCc1cc(=O)[nH]o1 [Muscimol]
[1]; [11]
  IC50: 0.012 µM
[2]; [12]
  IC50: 0.015 µM
[6]; half-maximal displacement of [3H] muscimol
  IC50: 0.023 µM
[3]; [13]
  IC50: 0.043 µM
[9]
  IC50: 0.03 µM

## O=C(O)C1=CCNCC1 [Isoguavacine]
[1]; [11]
  IC50: 0.26 µM
[2]; [12]
  IC50: 0.19 µM
[3]; [13]
  IC50: 0.289 µM
[9]
  IC50: 0.1 µM

## COc1ccc2c(c1OC)C(=O)O[C@@H]2[C@H]1c2cc3c(cc2CCN1C)OCO3 [Hydrastine]
[1]
  IC50: > 1000 µM
[2]
  IC50: > 1000 µM
[3]; [13]
  IC50: 2.61 µM

## CP(=O)(O)CCCN [SKF-97541]
[1]
  IC50: > 1000 µM
[2]
  IC50: > 1000 µM
[3]; [13]
  IC50: > 1000 µM

## O=S(=O)(O)C1CCNCC1 [Piperidine-4-sulfonate]
[1]; [11]
  IC50: > 1000 µM
[2]; [12]
  IC50: > 1000 µM

## NCC(CC(=O)O)c1ccc(Cl)cc1 (stereo not shown) [Baclofen]
[1]; [11]
  IC50: > 1000 µM
[2]; [12]
  IC50: > 1000 µM
[3]; [13]
  IC50: > 1000 µM

## NCCCC(=O)O [GABA, γ-aminobutyric acid]
[2]; [12]
  IC50: 0.038 µM
[10]
  Depolarization in whole cell voltage clamp: Depolarization was not detected

## O=C(O)C1CCNCC1 [Isonipecotic acid]
[1]; [11]
  IC50: 1.7 µM
[2]; [12]
  IC50: 2.68 µM
[3]; [13]
  IC50: 1.43 µM

## COc1ccc(-c2ccc(=N)n(CCCC(=O)O)n2)cc1 [Gabazine]
[1]; [11]
  IC50: > 1000 µM
[2]; [12]
  IC50: > 1000 µM
[3]
  IC50: 0.483 µM

## NC/C=C\C(=O)O [cis-4-amino-crotonic acid]
[1]; [11]
  IC50: 2.91 µM
[2]; [12]
  IC50: 1.62 µM
[3]; [13]
  IC50: > 1000 µM
